Source: US9144596B2, “Compositions and methods of treating neoplasia” (University of Florida Research Foundation, Inc., priority 2007, dated 2015)
“Also recorded” adds a separate entry of the source.

Legend:
pol-β [1] = target: T1, pol-β (Homo sapiens, UniProt P06746); experiment: dRP-lyase activity assay; format: biochemical; conditions: 1 nM pol-βwt; various concentrations of test substance
T1 construct: made in house; host or cells: Escherichia coli BL21(DE3)pLysS

pol-β [2] = target: T1, pol-β; experiment: strand-displacement synthesis, reconstituted in vitro base excision repair assay with 32P-F-DNA; format: biochemical; conditions: for pol-β-directed single-nucleotide incorporation: all the concentrations tested; for pol-β-directed strand-displacement synthesis: different concentrations
pol-β [3] = target: T1, pol-β; experiment: in vitro SN- and LP-BER assay with 32P-U-DNA; format: biochemical; conditions: for complete repair of 32P-U-DNA by the SN-BER pathway: absence of Fen-1, DNA ligase I; for complete repair of 32P-U-DNA by the LP-BER pathway: presence of Fen-1, DNA ligase I
[4] = test system: HCT-116-APC(WT)+ch3 cells; experiment: SRB cytotoxicity assay, MMR-proficient cells; format: cell-based, human
Protocol: (§1) FIGS. 24A and 24D NSC-124854 enhanced the cytotoxicity of TMZ in both MMR-positive and MMR-negative colon cancer cell lines in culture. […] After 48 hours, cells were harvested and processed for cytotoxicity determination. Data presented are the mean±SE of three different estimations.
(§2) The IC50 (the drug concentration needed to prevent cell proliferation by 50%) of TMZ was determined using a sulforhodamine B (SRB) colorimetric assay. This assay relies on the ability of SRB to bind the protein components of cells that have been fixed to tissue culture plates by trichloroacetic acid (TCA) (Vachai V, Kirtikara K. Sulforhodamine B colorimetric assay for cytotoxicity screening. Nat. Proto. 3: […], 2006). Briefly, the HCT-116(APC^+/+) and HCT-116(APC^−/−) were seeded in 96-well plates at a density of 500 cells per well. After 24 hours, while the cells were in the log phase of cell growth, the cells were treated with different concentrations of TMZ for 48 hours. The cells were subsequently fixed with 10% (w/v) of tricholoroacetic acid, washed with double distilled water, and stained with 0.4% SRB. Cells were then repeatedly washed with 1% (v/v) of acetic acid to remove the unbound dye. The protein bound dye was dissolved in 10 mM Tris-base solution (pH 10.5). The developed color was measured at 564 nm. The percentage of cell survival as a function of drug concentration was then plotted to determine the IC50 value. The IC50 of TMZ in HCT-116(APC^+/+) and HCT-116(APC^−/−) cells was 200 and 400 μM, respectively (FIG. 18A). […] This is consistent with the hypothesis that APC-mediated blockage of base excision repair increase d the sensitivity to TMZ in APC^+/+ cells. SRB assays were then used to determine whether TMZ-induced cytotoxicity was correlative to the increased level of APC in HCT-116(APC^+/+) cells.

SW480 cells = experiment: SRB cytotoxicity assay, MMR-proficient cells; format: cell-based, human
Protocol: as §1, §2

[5] = test system: HCT-116(APC+/+) and HCT-116(APC−/−) colon cancer cell lines; experiment: SRB cytotoxicity of the compounds alone (FIGS. 19E and F); format: cell-based, human; conditions: up to 100 μM concentrations
Protocol: After 48 hours, cells were harvested and processed for cytotoxicity determination as described herein. […] Data are the mean±SE of three different estimations.
(§3) The IC50 (the drug concentration needed to prevent cell proliferation by 50%) of TMZ was determined using a sulforhodamine B (SRB) colorimetric assay. This assay relies on the ability of SRB to bind the protein components of cells that have been fixed to tissue culture plates by trichloroacetic acid (TCA) (Vachai V, Kirtikara K. Sulforhodamine B colorimetric assay for cytotoxicity screening. Nat. Proto. 3: […], 2006). Briefly, the HCT-116(APC^+/+) and HCT-116(APC^−/−) were seeded in 96-well plates at a density of 500 cells per well. After 24 hours, while the cells were in the log phase of cell growth, the cells were treated with different concentrations of TMZ for 48 hours. The cells were subsequently fixed with 10% (w/v) of tricholoroacetic acid, washed with double distilled water, and stained with 0.4% SRB. Cells were then repeatedly washed with 1% (v/v) of acetic acid to remove the unbound dye. The protein bound dye was dissolved in 10 mM Tris-base solution (pH 10.5). The developed color was measured at 564 nm. […]
APC blocked base excision repair and sensitized colon cancer cells after TMZ treatment. […] The cellular toxicity was determined by sulforhodamine B (SRB) colorimetric assay as described above. […]

HCT-116(APC+/+) cells = experiment: sulforhodamine B (SRB) colorimetric cytotoxicity assay; format: cell-based, human; conditions: for effect on the cytotoxicity of TMZ: 2 hours pretreatment, then TMZ 48 hours
Protocol: as §2
(§4) APC blocked base excision repair and sensitized colon cancer cells after TMZ treatment. […] The cellular toxicity was determined by sulforhodamine B (SRB) colorimetric assay as described above. […] The cytotoxicity of these compounds was greater in HCT-116(APC^+/+) cells than in HCT-116(APC^−/−) cells (FIG. 19, compare the results of Panel A with B and C with D, respectively).

HCT-116(APC−/−) cells = experiment: as above; format: cell-based, human; conditions: for effect on the cytotoxicity of TMZ: 2 hours pretreatment, then TMZ 48 hours
Protocol: as §2, §4

CACO-2 cells = experiment: SRB cytotoxicity assay, MMR-deficient cells; format: cell-based; conditions: Homo sapiens; CACO-2, TMZ alone, 48 hours
Protocol: (§5) FIGS. 24A and 24D NSC-124854 enhanced the cytotoxicity of TMZ in both MMR-positive and MMR-negative colon cancer cell lines in culture. MMR-proficient [HCT-116-APC(WT)+ch3 and SW480 (Panel 24A and […])] and MMR-deficient [CACO-2 and LoVo (Panel 24C and 24D)] cells were pretreated for 2 hours with 50 μM of NSC-124854 followed by the treatment with different concentrations of TMZ. After 48 hours, cells were harvested and processed for cytotoxicity determination. Data presented are the mean±SE of three different estimations.
as §3, with “SRB.” for “SRB. Cells were then repeatedly washed with 1% (v/v) of acetic acid to remove the unbound dye. The protein bound dye was dissolved in 10 mM Tris-base solution (pH 10.5). The developed color was measured at 564 nm.”

LoVo cells = experiment: SRB cytotoxicity assay, MMR-deficient cells; format: cell-based; conditions: Homo sapiens, TMZ alone, 48 hours
Protocol: as §5
as §3, with “SRB.” for “SRB. Cells were then repeatedly washed with 1% (v/v) of acetic acid to remove the unbound dye. The protein bound dye was dissolved in 10 mM Tris-base solution (pH 10.5). The developed color was measured at 564 nm.”

pol-β [6] = target: T1, pol-β; experiment: long patch-base excision repair assay with 32P-F-DNA; format: biochemical; conditions: pol-βwt, Fen-1, DNA ligase I; 2 μM APCwt peptide
Protocol: To determine whether the blockage in the strand-displacement synthesis by the pol-βMut-1 was sufficient to block long patch-base excision repair, a long patch-base excision repair assay was set up as outlined in FIG. 10A. […] This DNA repair was blocked in the presence of 2 μM APCwt peptide, but not with APC(I-A,Y-A) peptide (FIG. 10B, compare lane 5 with 8 for APCwt and with 9-11 for APC(I-A,Y-A), respectively, for the formation of the 63-mer ligated product). […] The 2-nucleotide strand-displacement synthesis by pol-βMut-1 protein was sufficient to carry out long patch-base excision repair in the presence of Fen-1.
To study long patch- and single nucleotide-base excision repair activities, different types of DNA substrates were used. For long patch-base excision repair activity, an AP-site analog (3-hydroxy-2-hydroxymethyltetrahydrofuran, noted as F) was introduced at the 24th position of the 63-mer DNA (5′-[…] CGACA-3′ (SEQ ID NOS 17-18)), which was called F-DNA (27). For making U-DNA, uracil was introduced at the 24th position of 63-mer sense oligonucleotide (5′-[…] GACA-3′ (SEQ ID NO: 19)). Sense strands of F-DNA and U-DNA were 5′-end labeled by [a-^32P]ATP and T4 polynucleotide kinase and purified with a nick-column (GE Healthcare, Piscataway, N.J.). Later they were annealed with the complementary 63-mer oligonucleotide (5′-[…] CTAG-3′ (SEQ ID NO: 20)) at a 1:1 molar ratio. […]

[7] = 32P-U-DNA substrate, dose-dependent

Molecule | pol-β-directed dRP-lyase activity (pol-β [1]) | pol-β-directed single-nucleotide incorporation (pol-β [2]; 32P-F-DNA substrate) | pol-β-directed strand-displacement synthesis (pol-β [2]; 32P-F-DNA substrate) | complete repair of 32P-U-DNA by the SN-BER pathway (pol-β [3]) | complete repair of 32P-U-DNA by the LP-BER pathway (pol-β [3]) | complete DNA repair of F-DNA (63-mer ligated product), LP-BER (pol-β [6]) | cytotoxicity of the compound alone [5] | effect on the cytotoxicity of TMZ (HCT-116(APC+/+) cells; HCT-116(APC+/+)) | effect on the cytotoxicity of TMZ (HCT-116(APC−/−) cells) | other results
Cc1cc(S(=O)(=O)Nc2n[nH]c(Nc3ccc(Cl)cc3)n2)c(S)cc1Cl [NSC-666715] | – | – | – | – | – | – | very low | increased | increased | –
Cn1nnc2c(C(N)=O)ncn2c1=O [TMZ, Temozolomide, reference compound] | – | – | – | – | – | – | – | – | – | IC50 (CACO-2 cells): 364 µM; IC50 (LoVo cells): 677 µM; IC50 ([4]; Homo sapiens, HCT-116-APC(WT)+ch3, TMZ alone, 48 hours): 100 µM; IC50 (SW480 cells; Homo sapiens, SW480, TMZ alone, 48 hours): 120 µM; IC50 (HCT-116(APC+/+) cells; Homo sapiens, HCT-116(APC+/+), 48 hours, SRB, read-out: IC50 of TMZ): 200 µM; sensitivity to TMZ of HCT-116(APC+/+) versus HCT-116(APC−/−) cells (HCT-116(APC+/+) cells; ratio of IC50): 2 times; IC50 (HCT-116(APC−/−) cells; Homo sapiens, 48 hours, SRB, read-out: IC50 of TMZ): 400 µM
APC(I-A,Y-A): mutant APC peptide 1250-KVSSINQETAQTACVEDTPI-1269, Ile1259 and Tyr1262 replaced with alanine (UniProt P25054 1250-1269, looked up, variant I1259A Y1262A) [reference compound] | did not show any effect | unaffected | not | not | not | not | – | – | – | –
APCwt: wild-type APC peptide of 20 amino acids, 1250-KVSSINQETIQTYCVEDTPI-1269, DNA repair inhibitory (DRI)-domain (UniProt P25054 1250-1269, looked up, fragment) | blocked | unaffected | dose-dependent decrease; also recorded: blocked | blocked | blocked | blocked | – | – | – | –

Second part, led by results:

pol-β-directed dRP-lyase activity (pol-β [1]) | pol-β-directed single-nucleotide incorporation (pol-β [2]; 32P-F-DNA substrate) | pol-β-directed strand-displacement synthesis (pol-β [2]; 32P-F-DNA substrate) | complete repair of 32P-U-DNA by the SN-BER pathway (pol-β [3]) | complete repair of 32P-U-DNA by the LP-BER pathway (pol-β [3]) | complete DNA repair of F-DNA (63-mer ligated product), LP-BER (pol-β [6]) | Molecule | cytotoxicity of the compound alone [5] | effect on the cytotoxicity of TMZ (HCT-116(APC+/+) cells; HCT-116(APC+/+)) | effect on the cytotoxicity of TMZ (HCT-116(APC−/−) cells) | other results
did not inhibit | unaffected | dose-dependent decrease | – | – | – | O=C(O)CC(C(=O)O)C(CC(=O)O)C(=O)O (centres unmarked) [CN3] | – | – | – | –
successfully blocked | – | dose-dependent decrease | blocked in a dose-dependent manner | blocked in a dose-dependent manner | – | NC1=NC(=O)N(C2CC(O)C(COP(=O)(O)O)O2)C(I)C1 (centres unmarked) [NSC-124854] | very low | increased | increased | Pol-β-mediated 1-nt incorporation (pol-β [3]; [7]): blocked; strand-displacement synthesis in the presence of Fen-1 (pol-β [3]; [7]): blocked; reduction of the IC50 of TMZ ([4]; HCT-116-APC(WT)+ch3, combination of 50 μM of NSC-124584): 2.5 fold; reduction of the IC50 of TMZ (SW480 cells; SW480, combination of 50 μM of NSC-124584): 2.5 fold; DNA synthesis (1-nt and strand-displacement) of pol-β (pol-β [2]; 32P-F-DNA substrate): completely blocked; potency among the four compounds tested, strand-displacement synthesis (pol-β [2]; inhibited at lower concentrations): most potent
